According to ChEMBL document CHEMBL1149902, “Steroidal triglycosides, kurilensosides A, B, and C, and other polar steroids from the Far Eastern starfish Hippasteria kurilensis” (2008):

Tests used:
Type in all cases: functional
Mesocentrotus nudus [1] = assay: Inhibition of Strongylocentrotus nudus egg fertilization by Strongylocentrotus nudus sperm
Mesocentrotus nudus [2] = assay: Inhibition of Strongylocentrotus nudus egg fertilization by Strongylocentrotus nudus sperm at 13 uM
Mesocentrotus nudus [3] = assay: Inhibition of Strongylocentrotus nudus egg fertilization by Strongylocentrotus nudus sperm at 55 uM
Mesocentrotus nudus [4] = assay: Inhibition of Strongylocentrotus nudus egg fertilization by Strongylocentrotus nudus sperm at 67 uM

| SMILES | EC100 (Mesocentrotus nudus [1]) [×10⁻⁵ M] | inhibition at 55 µM (Mesocentrotus nudus [3]) [%] | also measured |
| --- | --- | --- | --- |
| CC(C)[C@@H](O)/C=C/[C@@H](C)[C@H]1C[C@@H](O)C2[C@@]3(O)C(CC[C@@]21C)[C@@]1(C)CC[C@H](O)[C@H](O)C1[C@@H](OS(=O)(=O)[O-])[C@H]3O.[Na+] (stereo partly specified) | 11 |  |  |
| CC(C)[C@@H](O)CC[C@@H](C)[C@H]1C[C@H](O)[C@@H]2[C@]1(C)CC[C@H]1[C@@]2(O)C[C@@H](O)C2[C@@H](O)[C@@H](O)CC[C@@]21C (stereo partly specified) |  |  | inhibition at 13 µM (Mesocentrotus nudus [2]): 100% |
| CO[C@H]1[C@H](O[C@H]2CC[C@@]3(C)C([C@H](O)C[C@@]4(O)[C@@H]5[C@@H](O)C[C@H]([C@H](C)CC[C@H](O[C@@H]6O[C@@H](CO)[C@H](OS(=O)(=O)[O-])[C@H]6O[C@@H]6O[C@@H](CO)[C@H](O)[C@H]6O)C(C)C)[C@@]5(C)CC[C@@H]43)[C@H]2O)OC[C@@H](O)[C@@H]1O.[Na+] (stereo partly specified) [KURILENSOSIDE A] | 8.9 |  |  |
| CO[C@H]1[C@H](O[C@H]2CC[C@@]3(C)C([C@H]2O)[C@@H](O)[C@@H](O)[C@@]2(O)[C@@H]4[C@H](O)C[C@H]([C@H](C)CC[C@H](O[C@@H]5O[C@@H](CO[C@H]6OC[C@H](O)[C@@H](O)[C@@H]6O)[C@H](O)[C@H]5O)C(C)C)[C@@]4(C)CC[C@@H]23)OC[C@@H](OC)[C@@H]1O (stereo partly specified) [KURILENSOSIDE B] |  | 100 |  |
| CO[C@H]1[C@H](OC[C@@H]2O[C@@H](O[C@@H](CC[C@@H](C)[C@H]3C[C@@H](O)[C@@H]4[C@]3(C)CC[C@H]3[C@@]4(O)[C@H](O)[C@H](O)C4[C@@H](O)[C@@H](O[C@@H]5OC[C@@H](O)[C@H](O)[C@H]5OC)CC[C@@]43C)C(C)C)[C@H](O)[C@H]2O)OC[C@@H](O)[C@@H]1O (stereo partly specified) [KURILENSOSIDE C] |  | 100 |  |
| CO[C@H]1[C@H](OC[C@@H]2O[C@@H](O[C@@H](CC[C@@H](C)[C@H]3C[C@@H](O)[C@@H]4[C@]3(C)CC[C@H]3[C@@]4(O)C[C@H](O)C4[C@@H](O)[C@@H](O)CC[C@@]43C)C(C)C)[C@H](O)[C@H]2O)OC[C@@H](O)[C@@H]1O (stereo partly specified) [KURILENSOSIDE D] |  |  | inhibition at 67 µM (Mesocentrotus nudus [4]): 100% |
